In patent publication US20250223307A1, “MDM2/MDMX DOUBLE-TARGET INHIBITOR COMPOUND, PRODRUG, PHARMACEUTICAL COMPOSITION, AND PREPARATION METHOD THEREFOR AND USE THEREOF” (GLOBAL HEALTH DRUG DISCOVERY INSTITUTE, priority 2022, published 2025) one finds IC50 and solubility data, which are given here for 2 compounds.

By IC50 is commonly meant the concentration at which inhibition is half-maximal. Higher therefore signals lower potency. Usually solubility stands for the concentration that dissolves in the medium under given conditions. The low end stands for little dissolved substance, the high end for much dissolved substance.

Molecules are shown by their SMILES. In brackets after ≈: the same amount, converted by molar mass. Bounds are passed on as bounds.

Series [1] addresses MDM2 (Homo sapiens, UniProt Q00987). The series is described as follows: HTRF test: inhibition of MDM2-p53 protein binding. A general note: In TR-FRET formats the signal depends on donor and acceptor labels being close together.
For series [2], the target named is T1, MDMX (Homo sapiens, UniProt O15151).
T1 sequence (O15151 2-134): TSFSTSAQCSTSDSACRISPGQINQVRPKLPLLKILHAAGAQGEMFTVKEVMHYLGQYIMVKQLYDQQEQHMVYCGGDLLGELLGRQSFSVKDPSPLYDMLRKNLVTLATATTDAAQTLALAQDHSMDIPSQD
As to the kind of experiment: HTRF test: inhibition of MDMX-p53 protein binding.

A short description of series [3]: Solubility test. It counts as physicochemical. Conditions: aqueous buffer, kinetic from dmso stock, phosphate buffer pH 7.4, 25° C. How it is done: Test Example 2: Solubility Test
A test substance and a control drug progesterone were prepared with DMSO into a 10 mM stock solution
30 μL 10 mM stock solution prepared from the test substance and the control drug progesterone was taken and added into bottles in corresponding positions of 96-well sample plate in a specified order. Then, 970 μL of phosphate buffer with pH 7.4 was added into corresponding bottles of the sample plate. The experiments were two parallel experiments. A stirring rod was added into each bottle, and each bottle was covered with a polytetrafluoroethylene/silicon organic resin bottle plug. Then, a sample tray was placed in Eppendorf Thermomixer Comfort and vibrated at a rotating speed of 1100/min at 25° C. for 2 h. 2 h later, the bottle plug was removed, the stirring rod was taken away with a large magnet, and then samples were transferred to a filter plate from the sample plate. A vacuum pump generated a negative pressure to filter the samples. […]
A sample injection plate was placed in a sample injection tray of an automatic sample injection, and samples were evaluated through liquid analysis. […]
Analysis and quantification of the filter of the samples were completed by qualitatively and quantitatively analyzing the peak of a standard product with known concentration through liquid chromatography-mass spectrometry. […]

Series [4] concerns Blood cancer cells RS4; 11. The series is described as follows: CellTiter Glo test: growth inhibition of cells. It counts as cell-based. Conditions: Homo sapiens, 11 cells, 72 h, cell viability. Background: In ATP-based viability assays light output follows the ATP content of the culture.

MDM2, sequence (Q00987 2-138): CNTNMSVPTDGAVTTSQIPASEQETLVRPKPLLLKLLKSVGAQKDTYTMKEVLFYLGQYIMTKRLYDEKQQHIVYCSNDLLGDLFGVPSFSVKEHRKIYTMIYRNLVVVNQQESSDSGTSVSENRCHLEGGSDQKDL

As for `N#Cc1ccc(C(COP(=O)(O)O)N2C(=O)N/C(=C\c3c[nH]c4cc(Cl)ccc34)C2=O)cc1` (stereo not shown) [Compound 40, (Z)-2-(4-((6-chloro-1H-indol-3-yl)methylene)-2,5-dioxoimidazolidin-1-yl)-2-(4-cyanophenyl)ethyl dihydrophosphate], the concentration for half-maximal inhibition (IC50) in series [1] was 10 to 100 nM; in series [2], > 100 nM. Moreover, in series [3], the solubility at 2 h came to 146 µg/mL (≈ 299 µM).

Turning to `N#Cc1ccc(C(CO)N2C(=O)N/C(=C\c3c[nH]c4cc(Cl)ccc34)C2=O)cc1` (stereo not shown) [Compound 38, (Z)-4-(1-(4-((6-chloro-1H-indol-3-yl)methylene)-2,5-dioxoimidazolidin-1-yl)-2-hydroxyethyl)benzonitrile], the IC50 is ≤ 1000 nM in series [4], < 10 nM in series [1] and 10 to 100 nM in series [2]. The solubility at 2 h in series [3] was found to be 0.075 µg/mL (≈ 0.184 µM).
